Assay results published in patent US20260158011A1 (Achieve Life Sciences, Inc., priority 2023, published 2026).
Like-named read-outs stand apart in the source and are kept apart here.

How the values were obtained:
[1] = test system: adults smoking 10+ cigarettes daily; settings: for Quit Rate, End-of-Treatment Week 4 / Quit Rate, Continuous Abstinence Weeks 5 to 8: CO<10 ppm confirmed; for Reduction in cigarettes smoked / Reduction in CO: 25 days; for Drug-placebo difference in quit rate: cytisinicline 3.0 mg TID; for Reduction in CO: expired CO; for Quit Rate, Continuous Abstinence Weeks 5 to 8: off treatment
Experimental: This was a six-arm, multi-center, double-blind, randomized, placebo-controlled study conducted in male or female adults ≥18 years of age, smoking 10+ cigarettes daily, and willing to set a quit date that is 5-7 days after randomization. […] The study also evaluated the effectiveness of a simplified TID dosing schedule for 1.5 mg and an increased dose of 3.0 mg (using both the commercial titration (COM) and simplified TID dosing schedules).
Study treatment started the day after randomization such that study treatment was initiated prior to the quit date, as shown in FIG. 3.
The primary efficacy endpoint for this study was the percent reduction in the number of cigarettes smoked during treatment, which was calculated as follows:
where N=total number of cigarettes smoked, B=number of cigarettes smoked at baseline and D=number of days.
The primary outcome (Cigarette Score) and the main secondary abstinence outcomes were subjected to sensitivity analyses. The main secondary abstinence outcomes were the initial quit rate at Week 4 and continued 4-week abstinence through Week 5 to Week 8, confirmed by expired carbon monoxide (CO) of <10 ppm designated as Cess/W5-8/CO Success.
Carbon monoxide (CO) levels (ppm) were assessed during the study at screening, baseline, end of study treatment intervention (Week 4), and weekly through Week 8 (FIG. 9).
Serum cotinine levels were exploratory and assessed only at screening, Week 4, and Week 8. Reported results for cotinine of <10 ng/mL were transformed to 0 ng/mL prior to statistical analysis.
The primary outcome was based on the number of cigarettes smoked on each day from a diary. The Cigarette Score used the diary data for the planned 25 days while on study treatment. Presented are sensitivity analyses for the comparison of the 3.0 mg TID arm and the pooled placebo arm related to variations on the primary analysis of Cigarette Score. The alternative definition of the Cigarette Score featured cigarettes recorded in the diary after the planned quit period of Days 5-7, that is, from Day 8 onward, instead of from Day 1 onward.
Another alterative analysis was based on re-analyses of the primary Cigarette Score and the above alternative Cigarette Score, with a weight related to the standard error of the mean number of cigarettes estimated from the diary entries. The weight used for each subject was 1/(SE)^2, where SE is the standard error of the mean estimate, and this type of weighting, referred to as inverse variance weighting, is used commonly. This weighting gives greater weight to means that are estimated with a smaller SE. A small modification to this definition of weight was necessary, however. In computing 1/(SE)^2, a specific rule was used when SE=0, specifically when all diary entry values were equal. In these cases, the SE was computed as if one and only one of the recorded values was larger by one. It can be shown that when this modification to the data is made SE=1/N, where N is the number of the subjects daily (days) entries.

[2] = test system: adults who smoked 10 cigarettes per day; settings: for Biochemically confirmed continuous smoking abstinence Weeks 3-6, % / Biochemically confirmed continuous smoking abstinence Weeks 9-12, %: primary outcome; for Biochemically confirmed continuous smoking abstinence Weeks 6-24, % / Biochemically confirmed continuous smoking abstinence Weeks 12-24, %: secondary outcome; for Relapse-free abstinence from week 6 to 24: intent-to-treat
Experimental: The trial was conducted at 17 U.S. sites. Adults aged 18 years were eligible if they currently smoked 10 cigarettes per day, had expired air carbon monoxide (CO) ≥10 ppm, and intended to quit smoking. Individuals were excluded if they used any non-cigarette tobacco product (pipe tobacco, cigars, smokeless tobacco, hookah), electronic cigarettes, smoking cessation medication (bupropion, varenicline, nortriptyline, nicotine replacement product), or marijuana (smoked or vaped) in the 28 days before randomization or planned to use them during the study. Other exclusion criteria included uncontrolled hypertension, hepatic or renal impairment, past 3-month history of acute myocardial infarction, unstable angina, cerebrovascular incident, or hospitalization for congestive heart failure, diagnosis of schizophrenia or bipolar disorder, current psychosis, suicidal ideation or suicide risk (Columbia Suicide Severity Rating Scale), (1) moderate to severe depression symptoms (Hospital Anxiety and Depression Scale score ≥11), (2) or a positive urinary screen for illicit drugs. (Full criteria in Trial Protocol).
At a screening visit, individuals provided written informed consent, completed a medical history, brief physical examination, electrocardiogram and laboratory tests, agreed to a quit date 5 to 7 days after study drug initiation, and recorded the number of cigarettes smoked daily for 7 days. At a second visit, participants who met inclusion and exclusion criteria were randomly assigned to study arm, received brief smoking cessation counseling, set their quit date within 5 to 7 days and started study medication the next day. A predetermined central computer-generated randomization sequence was used to assign participants (1:1:1) stratified by study site to receive placebo TID for 12 weeks (Arm A), 3 mg cytisinicline TID for 6 weeks followed by placebo TID for 6 weeks (Arm B), or 3 mg cytisinicline TID for 12 weeks (Arm C).
Study medication was identical-appearing tablets, containing 3 mg cytisinicline or placebo taken orally TID for 12 weeks. Participants were followed for 12 additional weeks after treatment ended. All participants received 10 minutes of brief smoking cessation behavioral support provided by trained counselors at each visit from randomization through week 24.
Assessments after randomization were conducted at in-person visits on day 2, weekly from 1 to 12 weeks, and at weeks 16, 20, and 24. Participants who discontinued study drug prematurely were encouraged to remain in the study and complete all assessment visits. Smoking status was assessed by self-report of cigarette abstinence since the last visit, measured weekly from weeks 2 through 12. Self-reported abstinence at weeks 16, 20, and 24 used the Russell criteria of not smoking more than 5 cigarettes since the last visit (3). A breath carbon monoxide (CO) level was measured at each visit. Verified abstinence required self-reported nonsmoking and a breath carbon monoxide (CO) <10 ppm. Participants not meeting these criteria or with missing data were classified as smoking.
The study had two primary endpoints. […] Study success was defined as either primary endpoint meeting statistical criterion. The secondary outcome measures were verified continuous cigarette abstinence to week 24 (weeks 3 to 24 for Arms B vs. A; weeks 9 to 24 for Arms C vs. A). A third secondary outcome measure compared the risk of relapse to smoking between weeks 6 and 24 among participants assigned to cytisinicline who achieved abstinence by week 6; these individuals were either switched to placebo at week 6 (Arm B) or continued cytisinicline to week 12 (Arm C). Other pre-specified endpoints included comparing the difference between arms in verified 7-day point-prevalence abstinence at each visit from week 2 through week 24 and assessing for evidence of effect modification for subsets defined by baseline attributes.

[3] = cytisine 1.5 mg, downward titration (COM) schedule
[4] = cytisine 3.0 mg TID, listed as CYT
[5] = cytisine 3.0 mg TID, listed as Cytisinicline
[6] = cytisine 3.0 mg, downward titration (COM) schedule
[7] = Arm B Cytisinicline 6 weeks, N = 269
[8] = Arm C Cytisinicline 12 weeks, N = 270

## O=c1cccc2n1C[C@@H]1CNC[C@H]2C1 [cytisine, (−)-Cytisine]
[1]; cytisine 1.5 mg TID
  Quit Rate, End-of-Treatment Week 4: 52%
  OR for initial quit rate at Week 4 versus placebo: 5.81
  OR for prolonged abstinence Week 5 to Week 8 versus placebo: 4.33
  Reduction in cigarettes smoked: 79%
  Reduction in CO: 71%
  Quit Rate, Continuous Abstinence Weeks 5 to 8: 27%
[1]; [3]
  Quit Rate, End-of-Treatment Week 4: 51%
  Reduction in cigarettes smoked: 80%
  Reduction in CO: 78%
  Quit Rate, Continuous Abstinence Weeks 5 to 8: 22%
[1]; cytisine 3.0 mg TID
  Quit Rate, End-of-Treatment Week 4: 54%
  OR for initial quit rate at Week 4 versus placebo: 6.31
  OR for prolonged abstinence Week 5 to Week 8 versus placebo: 5.04
  Reduction in cigarettes smoked: 74%
  Reduction in CO: 80%
  Quit Rate, Continuous Abstinence Weeks 5 to 8: 30%
[1]; [4]
  Quit Rate, End-of-Treatment Week 4: 54%
  Quit Rate, Continuous Abstinence Weeks 5 to 8: 30%
[1]; [5]
  Quit Rate, End-of-Treatment Week 4: 54%
  OR for initial quit rate at Week 4 versus placebo: 6.3
  OR for prolonged abstinence Week 5 to Week 8 versus placebo: 5.0
  Quit Rate, Continuous Abstinence Weeks 5 to 8: 30%
[1]; [6]
  Quit Rate, End-of-Treatment Week 4: 50%
  Reduction in cigarettes smoked: 78%
  Reduction in CO: 71%
  Quit Rate, Continuous Abstinence Weeks 5 to 8: 16%
[1]; all cytisine-treated arms, Week 4
  Serum cotinine levels: material reduction in cotinine levels
[1]; cytisine 1.5 mg, COM schedule
  OR for initial quit rate at Week 4 versus placebo: 5.59
  OR for prolonged abstinence Week 5 to Week 8 versus placebo: 3.23
[1]; cytisine 3.0 mg, COM schedule
  OR for initial quit rate at Week 4 versus placebo: 5.38
  OR for prolonged abstinence Week 5 to Week 8 versus placebo: 2.24
[1]; 4 weeks = end of treatment
  Drug-placebo difference in quit rate: 38.3%
[1]; 4 weeks off treatment (Weeks 5-8)
  Drug-placebo difference in quit rate: 22.2%
[1]; not weighted, diary start: Quit Day (8th day after start of intervention)
  Cigarette Score effect estimate (3.0 mg TID versus pooled placebo): −11.8
[1]; not weighted, diary start: start of intervention (primary outcome)
  Cigarette Score effect estimate (3.0 mg TID versus pooled placebo): −9.5
[1]; weighted analysis, diary start: Quit Day (8th day after start of intervention)
  Cigarette Score effect estimate (3.0 mg TID versus pooled placebo): −15.0
[1]; weighted analysis, diary start: start of intervention
  Cigarette Score effect estimate (3.0 mg TID versus pooled placebo): −11.8
[2]; 12-week versus 6-week cytisinicline
  OR for relapse-free abstinence week 6 to 24, Arm B vs Arm C: 1.31
[2]; [7]
  Biochemically confirmed continuous smoking abstinence Weeks 3-6, %: 25.3%
  Biochemically confirmed continuous smoking abstinence Weeks 9-12, %: 22.3%
  Biochemically confirmed continuous smoking abstinence Weeks 6-24, %: 8.9%
  Biochemically confirmed continuous smoking abstinence Weeks 12-24, %: 13.8%
[2]; Arm B vs. A
  OR versus placebo, continuous abstinence weeks 3 to 24: 3.7
[2]; Arm B vs. A (6-week treatment)
  OR versus placebo, continuous abstinence weeks 3 to 6: 8.0
[2]; Arm B vs. Arm A, Cytisinicline-6 weeks vs. placebo, 95% CI 0.03, 0.09
  Risk Difference, continuous smoking abstinence Weeks 6-24: 0.06
[2]; Arm B vs. Arm A, Cytisinicline-6 weeks vs. placebo, 95% CI 0.04, 0.13
  Risk Difference, continuous smoking abstinence Weeks 12-24: 0.09
[2]; Arm B vs. Arm A, Cytisinicline-6 weeks vs. placebo, 95% CI 0.10, 0.20
  Risk Difference, continuous smoking abstinence Weeks 9-12: 0.15
[2]; Arm B vs. Arm A, Cytisinicline-6 weeks vs. placebo, 95% CI 0.16, 0.25
  Risk Difference, continuous smoking abstinence Weeks 3-6: 0.21
[2]; Arm B vs. Arm A, Cytisinicline-6 weeks vs. placebo, 95% CI 1.56, 8.50
  Relative Risk, continuous smoking abstinence Weeks 6-24: 3.45
[2]; Arm B vs. Arm A, Cytisinicline-6 weeks vs. placebo, 95% CI 1.59, 5.46
  Relative Risk, continuous smoking abstinence Weeks 12-24: 2.87
[2]; Arm B vs. Arm A, Cytisinicline-6 weeks vs. placebo, 95% CI 1.98, 5.30
  Relative Risk, continuous smoking abstinence Weeks 9-12: 3.18
[2]; Arm B vs. Arm A, Cytisinicline-6 weeks vs. placebo, 95% CI 3.26, 10.74
  Relative Risk, continuous smoking abstinence Weeks 3-6: 5.71
[2]; Arm B vs. Arm A, Cytisinicline-6 weeks vs. placebo, 95% CI 4, 7
  NNT (number needed to treat), continuous smoking abstinence Weeks 3-6: 5
[2]; Arm B vs. Arm A, Cytisinicline-6 weeks vs. placebo, 95% CI 4, 11
  NNT (number needed to treat), continuous smoking abstinence Weeks 9-12: 7
[2]; Arm B vs. Arm A, Cytisinicline-6 weeks vs. placebo, 95% CI 7, 24
  NNT (number needed to treat), continuous smoking abstinence Weeks 12-24: 11
[2]; Arm B vs. Arm A, Cytisinicline-6 weeks vs. placebo, 95% CI 10, 40
  NNT (number needed to treat), continuous smoking abstinence Weeks 6-24: 16
[2]; Arm B: 3 mg cytisinicline TID 6 weeks then placebo 6 weeks
  Biochemically-confirmed continuous smoking abstinence, weeks 3 to 6: 25.3%
[2]; Arm B: 6-week cytisinicline treatment
  Continuous abstinence weeks 3 to 24: 8.9%
[2]; Arm B: switched to placebo at week 6
  Relapse-free abstinence from week 6 to 24: 10.4%
[2]; [8]
  Biochemically confirmed continuous smoking abstinence Weeks 3-6, %: 22.2%
  Biochemically confirmed continuous smoking abstinence Weeks 9-12, %: 32.6%
  Biochemically confirmed continuous smoking abstinence Weeks 6-24, %: 11.9%
  Biochemically confirmed continuous smoking abstinence Weeks 12-24, %: 21.1%
[2]; Arm C vs. A
  OR versus placebo, continuous abstinence weeks 9 to 24: 5.3
[2]; Arm C vs. A (12-week treatment)
  OR versus placebo, continuous abstinence weeks 9 to 12: 6.3
[2]; Arm C vs. Arm A, Cytisinicline-12 weeks vs. placebo, 95% CI 0.05, 0.12
  Risk Difference, continuous smoking abstinence Weeks 6-24: 0.09
[2]; Arm C vs. Arm A, Cytisinicline-12 weeks vs. placebo, 95% CI 0.11, 0.20
  Risk Difference, continuous smoking abstinence Weeks 12-24: 0.16
[2]; Arm C vs. Arm A, Cytisinicline-12 weeks vs. placebo, 95% CI 0.13, 0.22
  Risk Difference, continuous smoking abstinence Weeks 3-6: 0.18
[2]; Arm C vs. Arm A, Cytisinicline-12 weeks vs. placebo, 95% CI 0.20, 0.30
  Risk Difference, continuous smoking abstinence Weeks 9-12: 0.26
[2]; Arm C vs. Arm A, Cytisinicline-12 weeks vs. placebo, 95% CI 2.15, 11.05
  Relative Risk, continuous smoking abstinence Weeks 6-24: 4.59
[2]; Arm C vs. Arm A, Cytisinicline-12 weeks vs. placebo, 95% CI 2.53, 8.15
  Relative Risk, continuous smoking abstinence Weeks 12-24: 4.40
[2]; Arm C vs. Arm A, Cytisinicline-12 weeks vs. placebo, 95% CI 2.842, 9.50
  Relative Risk, continuous smoking abstinence Weeks 3-6: 5.02
[2]; Arm C vs. Arm A, Cytisinicline-12 weeks vs. placebo, 95% CI 2.98, 7.58
  Relative Risk, continuous smoking abstinence Weeks 9-12: 4.65
[2]; Arm C vs. Arm A, Cytisinicline-12 weeks vs. placebo, 95% CI 3, 6
  NNT (number needed to treat), continuous smoking abstinence Weeks 9-12: 4
[2]; Arm C vs. Arm A, Cytisinicline-12 weeks vs. placebo, 95% CI 4, 8
  NNT (number needed to treat), continuous smoking abstinence Weeks 3-6: 6
[2]; Arm C vs. Arm A, Cytisinicline-12 weeks vs. placebo, 95% CI 4, 9
  NNT (number needed to treat), continuous smoking abstinence Weeks 12-24: 6
[2]; Arm C vs. Arm A, Cytisinicline-12 weeks vs. placebo, 95% CI 8, 20
  NNT (number needed to treat), continuous smoking abstinence Weeks 6-24: 11
[2]; Arm C: 3 mg cytisinicline TID 12 weeks
  Biochemically-confirmed continuous smoking abstinence, weeks 9 to 12: 32.6%
[2]; Arm C: 12-week cytisinicline treatment
  Continuous abstinence weeks 9 to 24: 21.1%
[2]; Arm C: continued cytisinicline to week 12
  Relapse-free abstinence from week 6 to 24: 13.3%
[2]; Cytisinicline 6 wk vs. placebo, 95% CI 1.5 to 10.2, P .002
  Odds Ratio Arm B vs. Arm A, continuous smoking abstinence Weeks 6-24: 3.7
[2]; Cytisinicline 6 wk vs. placebo, 95% CI 3.9 to 16.3, P <.001
  Odds Ratio Arm B vs. Arm A, continuous smoking abstinence Weeks 3-6: 8.0
[2]; Cytisinicline 12 wk vs. placebo, 95% CI 2.8 to 11.1, P <.001
  Odds Ratio Arm C vs. Arm A, continuous smoking abstinence Weeks 12-24: 5.3
[2]; Cytisinicline 12 wk vs. placebo, 95% CI 3.7 to 11.6, P <.001
  Odds Ratio Arm C vs. Arm A, continuous smoking abstinence Weeks 9-12: 6.3
[2]; baseline to week 6, cytisinicline for 6 or 12 weeks compared to placebo
  Mean total cigarette craving score (QSU-brief): declined more rapidly
